Patent US20100137266A1, “TREATMENT OF INSULIN RESISTANCE AND DISORDERS ASSOCIATED THEREWITH” (UNIVERSITETET I OSLO, priority 2006, published 2010)

Key:
Type in all cases: cell-based, human
LXR target genes = experiment: Gene expression of LXR target genes in myotubes by Real-Time RT-PCR; settings: after 22-S-HC treatment; data not shown
[1] = system: Myotubes from type II diabetic subjects; experiment: T0901317 response in myotubes from type II diabetic vs healthy subjects; settings: 1 μM; type II diabetic myotubes compared to myotubes from healthy donors
Experimental: FIG. 9. […] T0901317 (1 μM) response of (A) palmitate uptake, distribution into cellular lipids and oxidation and (B) glucose uptake (GT), oxidation (GOX) and glycogen synthesis (GS) in myotubes from healthy donors and donors with type 2 diabetes #p≦0.05 vs control myotubes.

MyoD and myogenin = experiment: Expression of MyoD and myogenin and differentiation of myoblasts into myotubes
Experimental: FIG. 1. Expression of MyoD (A) and myogenin (B) during differentiation of myoblasts. During the differentiation process, cells were harvested on day-2 until day 8. Some cell cultures were treated with ±1 μM T0901317 from day 2 until day 6. Equal amount of total RNA from each donor (n=4) were pooled, reversely transcribed and analyzed by Real-Time RT-PCR. Expression of MyoD and myogenin was normalized to GAPDH. RNA isolation and analysis of gene expression by RT-PCR. Myotubes were washed, trypsinized and pelleted before total RNA was isolated by RNeasy Mini kit (Qiagen Sciences, Oslo, Norway) or Agilent Total RNA Mini kit (Matrix, Oslo, Norway) according to the suppliers total RNA isolation protocol. […] DNA expression was determined by SYBR® Green (Applied Biosystems), and primers [36B4 (Acc#M17885), ACSL1 (Acc#NM-001995), ABCA1 (Acc#AF165281), CD36 (Acc#L06850), FAS (Acc#U26644), GAPDH (Acc#J104038/M33197, GLUT4 (Acc#M20747), LXRα (Acc#U22662), LXR (Acc#U07132), Myogenin (Acc#X17651), MyoD (Acc#BC064493), PPARα (Acc#L02932), PPARδ (Acc#BC002715), PPARγ (Acc#L40904), SCD-1 (Acc#AB032261), SREBP1c (Acc#U00968)], GLUT1, (Acc#03195), GLUT3 ([…]) were designed using Primer Express® (Applied Biosystems). Each target gene was quantified in triplicates and carried out in a 25 μl reaction volume according to the suppliers protocol. […]

Structure (SMILES)	FAS mRNA expression observed on a micro fluid card (LXR target genes)	glucose uptake in response to T0901317 [1]	palmitate oxidation to CO2 in response to T0901317 [1]	uptake and incorporation of palmitate into complex lipids in response to T0901317 [1]	expression levels of MyoD and myogenin (MyoD and myogenin; 1 μM from day 2 until day 6)	differentiation of myoblasts into multinucleated myotubes by light microscopy (MyoD and myogenin; with and without LXR agonist treatment, data not shown)
CC(C)CC[C@H](O)[C@@H](C)[C@H]1CC[C@H]2[C@@H]3CC=C4C[C@@H](O)CC[C@]4(C)[C@H]3CC[C@]12C [Example 22-S-HC, 22-S-hydroxycholesterol]	significantly reduced	–	–	–	–	–
O=S(=O)(c1ccccc1)N(CC(F)(F)F)c1ccc(C(O)(C(F)(F)F)C(F)(F)F)cc1 [Example T0901317]	–	reduced	absence	elevated	did not seem to interfere	normal differentiation
